The record followed here is patent US7915405B2, “2,4-disubstituted-5-aminocarbonyl-1,3-thiazole derivatives for therapeutic agent of antiinflammatory disease, method thereof for preparation, therapeutic agent for antiinflammatory disease induced by SPC activity containing the same” (Korea Research Institute of Chemical Technology, priority 2008, dated 2011).

In assay [1] the test system is TPA-induced inflammation model. Briefly: Control of inflammatory reaction in mouse TPA-induced inflammation model (ear weight and MPO activity). Conditions: ICR mice. Format: in vivo. As for the experimental part: In order to examine an inhibitory effect on inflammatory reactions, the following test was carried out using tetradecanoyl phorbol acetate (hereinafter referred to as “TPA”)-induced inflammation model.
The TPA-induced inflammation model was a test method which has been widely used to test inflammatory reaction mechanisms and the effect of inhibitory substances [De Young L M et al., Agents and Actions, 1989, 26, 335-341]. When TPA which is a substance causing an inflammatory reaction is applied to the ear of a test subject, erythema and edema occur. Such inflammatory reactions are measurable through the increase in the activity of myeloperoxidase (MPO) which is essential for bacterial invasion into white blood cells.
Forty 6-week-old ICR mice were prepared, and 20 μl of a TPA solution (Sigma Aldrich Korea) obtained by dissolving TPA in acetone at a concentration of 125 μg/ml was applied to the left ear of each animal. At 1 hour after the application of TPA, 20 μl of each of acetone, the compounds of Examples dissolved in acetone at a concentration of 0.3%, and hydrocortisone (Sigma Aldrich Korea) dissolved in acetone at a concentration of 0.3% was applied to the TPA-applied site, and at 6 hours after the application of TPA, it was applied again to the same site in the same amount (20 μl). At 24 hours after the application of TPA, the mice were sacrificed by cervical dislocation, and the left ear was collected in a given width and measured for weight and MPO activity. Inhibition % of inflammatory reactions was calculated according to the following equation 3, and the results are shown in Table 4 below. Inhibition %=(group treated with TPA alone−group treated with test drug)/(group treated with TPA alone−group not treated with TPA)×100 [Equation 3]

The subject of assay [2] is human umbilical vein endothelial cells (HUVECs). Briefly: Inhibitory effect on chemotactic cell migration induced by SPC (Boyden chamber analysis). The class given is cell-based. Conditions: HUVEC. An excerpt:
Recently, it was reported that SPC plays an important role in chemotactic cell migration, similar to vascular endothelial cell growth (VEGF) [Boguslawski et al, Biochem Biophys Res Commun., 2000, 272, 603-609]. The phenomenon in which cells migrate in a living body by special cytokines or kemokines is a key step in a process, such as migration of immune cells to sites of inflammation, or angiogenesis caused by endothelial cells. Accordingly, the effect of the compounds prepared in the above Examples on chemotactic cell migration induced by SPC was tested by Boyden chamber analysis.
First, a 25×80 mm polycarbonate membrane (Neuro Probe, Inc.) having 8 μm pores was overnight coated by immersion in a solution containing 0.01% gelatin and 0.1% acetic acid solution and was naturally dried at room temperature.
Meanwhile, human umbilical vein endothelial cells (HUVECs) cultured in complete EBM-2 medium containing 2% fetal bovine serum were incubated in EBM-2 medium (Cambrex, Catalog No. CC-3121) containing no fetal bovine serum for 4 hours to achieve serum starvation, and then the cells were harvested with trypsin/EDTA solution. The HUVEC cells were suspended in EBM-2 medium containing 0.1% fetal bovine serum. Then, the cells were dispensed in a silicon-coated Eppendorf tube, the compound of Example 1-31 as a test drug was added to the cells in amounts of 0.1, 1 and 10 μg/ml, and the cells were treated with the compound at 37° C. for 30 minutes. 27 μL of EBM-2 medium containing 10 μM SPC or EBM-2 medium containing no SPC was dispensed in each well of the lower chamber of the Boyden chamber, and a gelatin-coated membrane was placed in the lower chamber, such that the glossy surface of the membrane was faced downward. A gasket was placed on the membrane, and then the upper chamber was assembled. 5×10^4 (56 μl) HUVEC cells treated with the drug were dispensed in each well of the upper chamber and incubated in a CO2 incubator at 37° C. for 8 hours. The membrane was separated, stained with Diff-Quik dye (Sysmex Corporation), washed with deionized water, and then attached to a slide glass, such that the glossy surface was faced downward. The cells attached onto the membrane were carefully wiped with kimwipes or cotton swabs, and then each well was photographed in five fields (200× magnification), and the cells were counted. Inhibition of chemotactic cell migration was calculated according to the following equation 2, and the results are shown in Table 3 below. Inhibition %=(group treated with SPC alone−group treated with test drug)/(group treated with SPC alone−group not treated with SPC)×100 [Equation 2]

A further assay deals with NIH 3T3 cells. Briefly: Control of cellular division and proliferation induced by SPC ([3H]-thimidine incorporation). The class given is cell-based. As for the experimental part:
Treatment of cells with sphingosylphosphorylcholine (SPC) can induce excessive cellular division and proliferation, thus causing pathological skin conditions [Desai, Biochem. Biophys. […] Accordingly, the compounds prepared in the above Examples were tested for an effect on cellular division and proliferation induced by SPC.
First, 1×10^5 (usually 1×10^4˜10^5) NIH 3T3 cells (American Type Culture Collection, Manassas, Va., USA) were dispensed and cultured on a culture plate, and then cultured in RPMI medium containing no fetal bovine serum for 24 hours to achieve serum starvation. The cells were treated with the compounds prepared in the above Examples, and FTY720, a sphingosine-1-phosphate (S1P) agonist, at concentrations of 0.001 μM, 0.01 μM, 0.1 μM and 1 μM, and were incubated for 30 minutes. Then, SPC (Biomol, Plymouth Meeting, Pa., USA) was added thereto at a concentration of 7 μM, and the cells were incubated at 37° C. for 24 hours. […] Proliferation %=(group treated with test drug−group not treated with SPC)/(group treated with SPC alone−group not treated with SPC)×100 [Equation 1]

Structures are written as SMILES.

One may read the inhibition as the relative decrease from the control value, in per cent. Higher therefore signals a response far below the control. As usually defined, the IC50 is the midpoint of a concentration-inhibition curve.

For `COc1ccccc1N1CCN(c2nc(NC(=O)C(C)(C)C)c(C(=O)N3CCCCC3)s2)CC1` [Example 1-31, N-{2-[4-(2-methoxyphenyl)-piperazin-1-yl]-5-(piperidine-1-carbonyl)thiazol-4-yl}pivalamide], the “Inhibition (%) of inflammatory reaction (ear edema, ear weight)” value in assay [1] (0.3% in acetone, 20 μl on the ear at 1 hour and 6 hours after TPA, measured at 24 hours) was 84%. Besides, the “inhibition of TPA-induced inflammatory reactions, ear edema and MPO activity (in words)” value in assay [1] (0.3% topical, compared with hydrocortisone) is listed as “significantly inhibited”. Moreover, in assay [1] (value in brackets, 0.3% in acetone, 20 μl on the ear at 1 hour and 6 hours after TPA, MPO activity of ear at 24 hours), the “Inhibition (%) (MPO inhibition)” value was 78%. In assay [2] (Boyden chamber), the “inhibition of chemotactic cell migration caused by SPC (in words)” value is “strongly inhibited”. Moreover, the inhibition at 0.1 µg/mL in assay [2] (Homo sapiens, 0.1 μg/ml, 10 μM SPC, 8 hours) is 44%. For the same compound, the inhibition at 1 µg/mL in assay [2] (Homo sapiens, 1 μg/ml, 10 μM SPC, 8 hours) worked out at 58%. Besides, in assay [2] (Homo sapiens, 10 μg/ml, 10 μM SPC, 8 hours), 10 µg/mL produced 69% inhibition. For the same compound, the half-maximal inhibitory concentration (IC50) in the assay with NIH 3T3 cells (Mus musculus, NIH3T3, serum starved, compound 0.001-1 μM 30 minutes, then SPC 7 μM, 24 hours, read-out: antagonistic effect on SPC IC50) was 5.42 nM. Moreover, the “inhibition of cellular division and proliferation induced by SPC (in words)” value with NIH 3T3 cells (SPC 7 μM) is reported as “dose-dependently inhibited”.
